Each structure is given as a SMILES string. Some results are limits rather than exact numbers.

For this assay, the system named is Hepatitis C replicon. Nature of the assay: HCV replicon replication assay (NPT level by captured ELISA). Format: cell-based. As to conditions: Hepatitis C virus, Huh-7, 72 h. On the procedure: Compounds claimed herein are tested for the ability to inhibit viral replication of the Hepatitis C replicon in cultured cells in which the HCV replicon construct has been incorporated. The HCV replicon system was described by Bartenschlager, et. al (Science, 285, pp. 110-113 (1999)). The replicon system is predictive of in vivo anti-HCV activity; compounds that are active in humans uniformly evidence activity in the replicon assay.
In this assay HCV replicon containing cells are treated with different concentrations of the test compound to ascertain the ability of the test compound to suppress replication of the HCV replicon. As a positive control, HCV replicon-containing cells are treated with different concentrations of interferon alpha, a known inhibitor of HCV replication. The replicon assay system includes Neomycin Phosphotransferase (NPT) as a component of the replicon itself in order to detect the transcription of replicon gene products in the host cell. Cells in which the HCV replicon is actively replicating have high levels of NPT; the level of NPT is proportional to HCV replication. […] The NPT level of each sample is measured using a captured ELISA.
A protocol for testing compounds for the ability to inhibit viral replication of the Hepatitis C replicon cultured cells in which the replicon construct has been incorporated, follows.
The HCV genome consists of a single ORF that encodes a 3000 amino acid polyprotein. The ORF is flanked on the 5′ side by an untranslated region that serves as an internal ribosome entry site (IRES) and at the 3′ side by a highly conserved sequence necessary for viral replication (3′-NTR). The structural proteins, necessary for viral infection, are located near the 5′ end of the ORF. The non-structural proteins, designated NS2 to NS5B comprise the remainder of the ORF. […]
HCV replicon-containing cells are examined under a microscope to ensure that cells growing well. […] The cells are counted. […]
As to `COC(=O)N[C@H](C(=O)N1C2CCC(C2)[C@H]1c1nc(-c2ccc(-c3ccc(-c4c[nH]c([C@@H]5CC6CCCCC6N5C(=O)[C@@H](NC(=O)OC)C(C)C)n4)cc3)cc2)c[nH]1)C(C)C` (stereo partly drawn) [Compound 10], the EC50 was less than 10 nM. The result for `COC(=O)N[C@H](C(=O)N1C2CCC(C2)[C@H]1c1nc(-c2ccc(-c3ccc(-c4c[nH]c([C@@H]5CC6CCCCC6N5C(=O)[C@@H](NC(=O)OC)C(C)C)n4)cc3)nc2)c[nH]1)C(C)C` (stereo partly drawn) [Compound 14] reads less than 10 nM. The result for `COC(=O)N[C@H](C(=O)N1C2CCC(C2)[C@H]1c1nc(-c2ccc(-c3ccc(-c4c[nH]c([C@@H]5CC6CCCCC6N5C(=O)[C@@H](NC(=O)OC)C(C)C)n4)cc3)s2)c[nH]1)C(C)C` (stereo partly drawn) [Compound 15] reads less than 10 nM.

By EC50 is commonly meant the concentration giving half of the maximal effect. Lower therefore signals an effect from little substance.

The values are drawn from patent US8835456B1, “NS5A inhibitors useful for treating HCV” (Achillion Pharmaceuticals, Inc., priority 2011, dated 2014).
